The record followed here is ChEMBL document CHEMBL4376815, “The Development Process for Discovery and Clinical Advancement of Modern Antimalarials” (J Med Chem, 2019).

In general, half-life refers to how long it takes for the measured level to halve. A lower half-life goes with rapid decline. A word on the EC50: it is the midpoint of the concentration-response curve. A low value points to higher potency in that assay. As usually defined, the IC50 is the concentration needed to halve the response being measured. A low value points to greater potency. By Ki is commonly meant the dissociation constant of the complex between target and ligand, obtained from inhibition or displacement. Low values mean tighter binding, high ones weaker binding.

The nature of data set [1]: Drug level in human Plasma treated with [14C]-KAE609 assessed metabolite formation. In kind it is ADME, cell-free.
Data set [2] can be described thus: Drug recovery in feces of po dosed human by LC-MS/MS analysis. To be noted: faeces, read-out: Drug recovery. Type of data set: ADME, organism-based.
Data set [3] in a line: Half life in human. In kind it is ADME.
A further data set has as its system Plasmodium falciparum. The data set is described as follows: Antimalarial activity against Plasmodium falciparum. In kind it is functional, organism-based.
For data set [4], the target named is T1, Dihydroorotate dehydrogenase (Plasmodium falciparum, UniProt Q54A96).
T1 sequence (Q54A96 whole entry): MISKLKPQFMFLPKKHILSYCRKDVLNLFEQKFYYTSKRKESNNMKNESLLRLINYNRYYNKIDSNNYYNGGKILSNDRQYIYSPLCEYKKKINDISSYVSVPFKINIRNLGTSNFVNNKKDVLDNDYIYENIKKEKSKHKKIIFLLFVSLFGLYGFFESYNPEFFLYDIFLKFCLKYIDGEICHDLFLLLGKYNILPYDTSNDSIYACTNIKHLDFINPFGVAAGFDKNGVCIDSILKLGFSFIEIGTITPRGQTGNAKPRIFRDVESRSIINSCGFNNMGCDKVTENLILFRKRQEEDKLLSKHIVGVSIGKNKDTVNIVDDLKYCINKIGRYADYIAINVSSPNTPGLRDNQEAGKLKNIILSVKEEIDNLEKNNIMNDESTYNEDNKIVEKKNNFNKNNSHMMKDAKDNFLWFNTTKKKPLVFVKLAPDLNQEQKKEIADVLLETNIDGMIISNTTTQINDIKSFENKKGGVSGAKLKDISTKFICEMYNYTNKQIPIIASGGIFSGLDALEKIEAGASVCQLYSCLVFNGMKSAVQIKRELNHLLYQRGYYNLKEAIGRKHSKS
Description: Inhibition of Plasmodium falciparum DHODH expressed in Escherichia coli using L-dihydroorotate as substrate.

For data set [5], the target named is Dihydroorotate dehydrogenase (quinone), mitochondrial (Homo sapiens, UniProt Q02127). The data set is described as follows: Inhibition of human DHODH expressed in Escherichia coli using L-dihydroorotate as substrate.
A further data set addresses Cytochrome P450 3A4 (Homo sapiens, UniProt P08684). The data set is described as follows: Inhibition of CYP3A4 (unknown origin). In kind it is ADME.
Data set [6] can be described thus: Cardiotoxicity in human assessed as effect on QT parameters at 1280 mg. Type of data set: toxicity.

Dihydroorotate dehydrogenase (quinone), mitochondrial, sequence (Q02127 whole entry): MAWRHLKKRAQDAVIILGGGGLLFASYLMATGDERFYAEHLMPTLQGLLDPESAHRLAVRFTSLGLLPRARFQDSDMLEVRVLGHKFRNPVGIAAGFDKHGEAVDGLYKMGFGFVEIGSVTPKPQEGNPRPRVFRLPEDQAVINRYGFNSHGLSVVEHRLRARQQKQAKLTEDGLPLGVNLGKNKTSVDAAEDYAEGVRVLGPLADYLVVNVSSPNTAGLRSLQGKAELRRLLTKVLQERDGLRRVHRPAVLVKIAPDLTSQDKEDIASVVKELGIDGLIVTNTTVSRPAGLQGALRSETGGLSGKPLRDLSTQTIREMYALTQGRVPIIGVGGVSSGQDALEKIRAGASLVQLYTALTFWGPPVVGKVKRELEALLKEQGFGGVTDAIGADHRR
Cytochrome P450 3A4, sequence (P08684 whole entry): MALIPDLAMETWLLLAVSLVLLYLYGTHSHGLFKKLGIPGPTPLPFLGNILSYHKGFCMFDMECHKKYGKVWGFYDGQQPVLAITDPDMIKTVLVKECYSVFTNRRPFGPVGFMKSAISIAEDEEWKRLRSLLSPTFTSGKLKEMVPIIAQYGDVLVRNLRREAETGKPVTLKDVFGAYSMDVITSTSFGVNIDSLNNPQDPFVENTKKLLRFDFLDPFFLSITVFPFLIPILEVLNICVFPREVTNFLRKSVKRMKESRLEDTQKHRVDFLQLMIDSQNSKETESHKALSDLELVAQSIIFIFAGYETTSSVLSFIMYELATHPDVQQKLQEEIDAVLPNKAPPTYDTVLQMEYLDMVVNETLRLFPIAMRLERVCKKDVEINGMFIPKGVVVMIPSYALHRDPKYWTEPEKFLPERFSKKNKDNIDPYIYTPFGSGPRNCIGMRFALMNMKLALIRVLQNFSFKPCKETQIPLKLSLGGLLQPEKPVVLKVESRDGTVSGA

Take `C[C@H]1Cc2c([nH]c3cc(Cl)c(F)cc23)-c2c3cc(Cl)c(O)cc3nc(=O)n21`: the Drug uptake in data set [1] is recorded as 12%. In addition, in data set [2], the dose excreted was found to be 36%. The half-life in data set [3] is 1500 min.
In the data set with Plasmodium falciparum, `Cc1cc(Nc2ccc(S(F)(F)(F)(F)F)c(F)c2)n2nc(C(C)(F)F)nc2n1` had an EC50 of 2 nM. Besides, the half-inhibitory concentration (IC50) in data set [4] worked out at 10 nM; in data set [5] it was 3.7 µM.
In the case of `Clc1ccc2c(N3CCN(CCCN4CCN(c5ccnc6cc(Cl)ccc56)CC4)CC3)ccnc2c1` [PIPERAQUINE], the affinity on Cytochrome P450 3A4, expressed as Ki, was 90 nM. Besides, the Activity in data set [6] was 79.2%.
On to `C[C@H]1Cc2c([nH]c3cc(Cl)c(F)cc23)-c2c3cc(Cl)ccc3nc(=O)n21`, for which the Drug uptake in data set [1] is recorded as 8%.
